# Patent publication US20240400606A1, “SMALL MOLECULE ACTIVATORS OF THE IMMUNE SYSTEM” (THE BOARD OF TRUSTEES OF THE UNIVERSITY OF ILLINOIS, priority 2021, published 2024)
# Key:
# MCF-7 cells = experiment: Alamar blue cellular cytotoxicity, MCF-7; assay type: cell-based; conditions: MCF-7, 72 hours
# Procedure: (§1) Alamar Blue Fluorescence for Cellular Activity (IC50). Cells were seeded per well in a 96-well plate (5000 for MCF-7, 4000 for T47D, 7000 for mouse embryonic fibroblasts) and allowed to adhere before DMSO solutions of compounds were added to each well. Final concentration of DMSO in each well is 1%, final volume: 100 μL. At the end of 72 hours, Alamar Blue solution was added (10 μL of 1 mg resazurin per 10 mL PBS). After 2-4 hours incubation, fluorescence (λexcit.=555 nm, λemission.=585 nm) was measured. The fluorescence of each well was read with a SpectraMax M3 plate reader (Molecular Devices). Percent dead was determined by comparison to a 100% dead control: 100 μM Raptinal treated cells.
# Whole cell cytotoxicity-MCF-7. Cell cytotoxicity was assessed to ensure compound concentrations used the whole cell assays would not kill the cells. Alamar blue cell cytotoxicity assay: 5000 cells were seeded per well in a 96-well plate and allowed to adhere before DMSO solutions of compounds were added to each well. Final concentration of DMSO in each well is 1%, with a final volume of 100 μl. […] After 2 to 4 hours of incubation, fluorescence (λexcitation=555 nm, λemission=585 nm) was measured. Percent dead was determined by comparison to a 100% dead control: 100 μM Raptinal-treated cells (FIG. 6).
# T47D cells = experiment: Alamar blue cellular cytotoxicity, T47D; assay type: cell-based; conditions: 72 hours
# Procedure: as §1
# [1] = test system: free cholesterol levels in MCF-7; experiment: Whole cell cholesterol assay; assay type: cell-based, human; conditions: MCF-7, 6.25 μM, 72 hours
# Procedure: Whole Cell Cholesterol Assay. Assay was run according to manufacturer's instructions. Briefly, 5000 MCF-7 cells were plated in 99 μL media in a 96-well plate and allowed to adhere overnight before DMSO solutions of compounds were added to each well. Final concentration of DMSO in each well is 1%, final volume: 100 μL. At the end of 72 hours, media was aspirated, and cells were washed twice with 100 μL PBS. 50 μL of cholesterol lysis solution was added and cells were incubated for 30 minutes at 37° C. 50 μL of sample was then transferred to a 96-well white walled assay plate. 50 μL of cholesterol detection reagent was added to all wells and incubated at room temperature for 1 hour. Luminescence was read using a SpectraMax M3 plate reader (Molecular Devices). Cholesterol levels were determined by use of a cholesterol standard curve.
# SULT2B1b = SULT2B1b (Homo sapiens (Human), UniProt O00204); experiment: Coupled chromogenic SULT2B1b inhibition assay; assay type: biochemical; conditions: for IC50: coupled chromogenic in vitro assay, optimized conditions, mean±s.e.m., n=3
# Procedure: Optimized Coupled Chromogenic SULT2B1b Activity Assay. For 96-well Format: Working concentrations of IMPAD1 (0.1 mg/mL in 1× activity assay buffer), PAPS (1 mM in 1× activity assay buffer), and DHEA (2.5 mM in DMSO) were prepared. Two technical replicates were assayed for each sample. Reaction mixes were prepared by mixing 10 μL PAPS stock solution, 10 μL IMPAD1 stock solution, 4 μL 2.5 mM DHEA or DMSO, and 16 μL activity assay buffer to make […] reaction mix. Amount of reaction mix was scaled accordingly to number of samples assayed. 25 μL of reaction mix was dispensed to each well. SULT2B1b was diluted to 1.5 μg/μL in protein storage buffer then down to 0.8 μg/μL in 1X activity assay buffer. 25 μL of 0.8 μg/μL SULT2B1b was added to each well. The reaction was incubated at 37° C. for 45 minutes, then quenched by addition of 30 μL of malachite green solution A, followed by addition of 30 μL of malachite green solution B. The plate was left at room temperature for 20 minutes for color stabilization, then absorbance was read at 620 nm. IMPAD1 activity control was 10 μL of 0.1 mg/mL IMPAD1 mixed with 40 μL activity assay buffer. 25 μL of the IMPAD1 dilution was added to 25 μL of 0.1 mM PAP.
# Coupled Chromogenic SULT2B1b Inhibition Assay. For 96-well Format: Working stock solutions of IMPAD1 (0.1 mg/mL in 1× activity assay buffer), PAPS (1 mM in 1X activity assay buffer), compound of interest (5 mM in DMSO) and DHEA (5 mM in DMSO) were prepared. Two technical replicates were assayed for each sample. […] The reaction was incubated at 37° C. for 45 minutes, then quenched by addition of 30 μL of malachite green solution A, followed by addition of 30 μL of malachite green solution B. The plate was left at room temperature for 20 minutes for color stabilization, then absorbance was read at 620 nm. […]
# Percent inhibition was calculated as: 100−[100×[(Phosphate produced per wellaverage,compound of interest−Phosphate produced per wellaverage, DMSO)/(Phosphate produced per wellaverage, DHEA−Phosphate produced per wellaverage, DMSO)]]. […]
# Sequence of SULT2B1b (O00204 whole entry): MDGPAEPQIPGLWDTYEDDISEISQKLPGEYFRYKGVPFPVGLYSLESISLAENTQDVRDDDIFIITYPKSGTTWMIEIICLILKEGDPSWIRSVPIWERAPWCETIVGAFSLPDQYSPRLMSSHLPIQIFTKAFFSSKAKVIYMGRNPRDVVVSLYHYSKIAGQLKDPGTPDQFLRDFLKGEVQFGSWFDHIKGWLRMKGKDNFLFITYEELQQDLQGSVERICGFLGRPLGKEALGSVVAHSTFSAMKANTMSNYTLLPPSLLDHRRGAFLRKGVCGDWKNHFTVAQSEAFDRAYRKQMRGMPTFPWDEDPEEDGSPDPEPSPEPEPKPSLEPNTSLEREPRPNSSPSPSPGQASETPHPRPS
SMILES,suitable sub-lethal treatment concentration (MCF-7 cells) [µM],suitable sub-lethal treatment concentration (T47D cells) [µM],free cholesterol levels vs DMSO [1],IC50 (SULT2B1b) [µM],percent inhibition (SULT2B1b; initial medium throughput screen) [%]
"C[C@]12CCC(=O)N(Cc3ccc(Br)cc3)C1=CC[C@@H]1[C@@H]2C(=O)C[C@]2(C)C(=O)CC[C@@H]12 [Compound 3, (4aR,4bS,6aS,9aS,9bS)-1-(4-bromobenzyl)-4a,6a-dimethyl-3,4,4a,6,6a,8,9,9a,9b,10-decahydro-1H-indeno[5,4-f]quinoline-2,5,7(4bH)-trione]",6.25,6.25,no statistical difference,,
"C[C@]12CC[C@H](O)CC1=CC[C@@H]1[C@@H]2CC[C@]2(C)C(n3cnc4ccccc43)=CC[C@@H]12 [Compound 2, Galeterone, reference compound]",,,,41 ± 7,
"C[C@]12CCC(=O)N(Cc3ccc(Cl)cc3)C1=CC[C@@H]1[C@@H]2C(=O)C[C@]2(C)C(=O)CC[C@@H]12 [Compound 1, (4aR,4bS,6aS,9aS,9bS)-1-(4-chlorobenzyl)-4a,6a-dimethyl-3,4,4a,6,6a,8,9,9a,9b,10-decahydro-1H-indeno[5,4-f]quinoline-2,5,7(4bH)-trione]",6.25,6.25,,34 ± 4,48
